Laboratory results as given in US20120183976A1, “METHODS OF ASSESSING ACTIVITY OF A POLYSACCHARIDE COMPOSITION” (priority 2009, published 2012).

Tested on: C170HM2 human colorectal tumor cells
Assay: C170HM2 colon cancer metastasis to the liver model
Assay type: in vivo, MF1 nude (nu/nu) athymic mice
Details: 25 mg/kg i.v. cycled on days 1, 3, 5, 7
Procedure: Liver metastasis was initiated by intraperitoneal injection of C170HM2 human colorectal tumor cells into male MF1 nude (nu/nu) athymic mice. 5FU/leucovorin was used as a positive control.
C170HM2 cells were maintained in vitro in RPMI culture medium (Sigma) containing 10% (v/v) heat inactivated fetal bovine serum and 2 mM L-glutamine at 37° C. in 5% CO2 and humidified conditions. Cells from sub-confluent monolayers were harvested with 0.025% EDTA, washed in culture medium and re-suspended in sterile phosphate buffered saline, pH 7.4 (PBS) for in vivo administration. 1.5×10^6 cells in a volume of 1 ml were injected intraperitoneally into 65 mice, and the mice were allocated into treatment groups as below.
Group 1: n=10 Vehicle control Group 2: n=10 25 mg/kg 5FU/leucovorin i.v. cycled on days 1, 3, 5, 7 Group 3: n=10 5 mg/kg compound 1 (Dalteparin) s.c. once daily Group 4: n=10 5 mg/kg compound 2 (M402) s.c. once daily Group 5: n=10 15 mg/kg compound 2 s.c. once daily Group 6: n=10 30 mg/kg compound 2 s.c. once daily Group 7: n=5 Untreated
Treatment was initiated on day 1 following cell injection and continued until day 35 or until the clinical condition of the animal required termination. Groups 5 and 6 missed one dose on day 5. […]
The study was terminated on day 35, and the tumors in the liver were excised and weighed. The numbers of lung nodules are also counted.

5FU/leucovorin
Mean tumor area (day 35): 13.12 mm^2
Mean tumor weight (liver tumors day 35): 0.037 g
